Measured values reported in patent publication US7691572B2, “Method and kit for detecting resistance to antiviral drugs” (priority 1998, dated 2010).
Like-named read-outs stand apart in the source and are kept apart here.

Columns and labels:
HIV-1 RT [1] = experiment: Amp-RT assay, AZT-TP and other NRTI-TPs, reference viruses; format: biochemical; conditions: for % inhibition (SEM) / inhibition of RT activity / inhibition of activity: 1 μM AZT-TP; for inhibition of RT activity: ~1.882×10^−7 to ~1.882×10^−5 units of RT activity per ml
HIV-1 RT [2] = format: biochemical; conditions: for inhibition of RT activity / RT activity inhibition / Phenotype / % inhibition: 1 μM AZT-TP
Text: Four groups of archived HIV-1 specimens with known genotypes were selected for assay validation. These included WT, MNR, MNR carrying unrelated resistance mutations, and non-MNR specimens carrying classical AZT resistance mutations (Schmit et al., “Multiple drug resistance to nucleoside analogues and nonnucleoside reverse transcriptase inhibitors in an efficiently replicating human immunodeficiency virus type 1 patient strain,” J. Infect. Dis. 174: 962-968 (1996); Winters et al., “A 6-base pair insert in the reverse transcriptase gene of human immunodeficiency virus type 1 confers resistance to multiple nucleoside inhibitors,” J. Clin. Invest. 102: 1769-1775 (1998); Adje et al., “High prevalence of genotypic and phenotypic HIV-1 drug-resistant strains among patients receiving antiretroviral therapy in Abidjan, Cote d'Ivoire,” J. Acquired Immune Deficiency Syndromes 26: 501-506 (2001); Weinstock et al., “Prevalence of mutations associated with reduced antiretroviral drug susceptibility among human immunodeficiency virus type 1 seroconverters in the United States, 1993-1998,” J. Infect. Dis. 182: 330-333 (2000)). Forty-four samples were selected which comprised 7 viral stocks and 37 plasma samples obtained from 34 HIV-1-infected persons.

[3] = MNR HIV-1SUM12 (F77L, F116Y, Q151M)
[4] = MNR HIV-1SUM13 (A62V, V75I, F77L, F116Y, Q151M)
[5] = classical AZT-resistant HIV-1 R598 (D67N, V106A, L210W, L214F, T215Y)
[6] = classical AZT-resistant HIV-1RTMC/MT2 (D67N, K70R, T215F, K219Q)
[7] = specimen no. 40 (T215Y and T69S-EA insertions)

For `Nc1ccn([C@@H]2CS[C@H](COP(=O)(O)OP(=O)(O)OP(=O)(O)O)O2)c(=O)n1` [3TC-TP, 3TC-5′-triphosphate], the IC50 (HIV-1 RT [1]; MNR HIV-1SUM8 (Q151M)) was 0.9 µM, the “fold resistance (IC50) as compared to the mean IC values of WT HIV-1” value (“fold resistance (IC50)” for short) (HIV-1 RT [1]; MNR HIV-1SUM8 (Q151M)) was “(1.8) fold” and the IC50 (HIV-1 RT [1]; [3]) was 2.7 µM. The “fold resistance (IC50)” value (HIV-1 RT [1]; [3]) was “(5.4) fold”, the IC50 (HIV-1 RT [1]; [4]) was 3.3 µM and the “fold resistance (IC50)” value (HIV-1 RT [1]; [4]) was “(6.6) fold”. It also gave an IC50 (HIV-1 RT [1]; WT HIV-1SUM9) of 0.4 µM and an IC50 (HIV-1 RT [1]; WT HIV-1xxBRUpitt) of 0.6 µM.

With `Cc1cn([C@H]2C[C@H](N=[N+]=[N-])[C@@H](COP(=O)(O)OP(=O)(O)OP(=O)(O)O)O2)c(=O)[nH]c1=O` [AZT-TP, AZT-triphosphate] the “% inhibition (SEM)” value (HIV-1 RT [1]; HIV-1LAI, WT) was 99.9 (±0.02) %, the “% inhibition (SEM)” value (HIV-1 RT [1]; HIV-1M184Vpitt, M184V) was 91.1 (±3.3) % and the “% inhibition (SEM)” value (HIV-1 RT [1]; HIV-1R598, D67N, V106A, L210W, L214F, T215Y) was 97.8 (±2.2) %. For the same compound, the “% inhibition (SEM)” value (HIV-1 RT [1]; HIV-1RTMC/MT-2, D67N, K70R, T215F, K219Q) was 91.5 (±8.5) %, the “% inhibition (SEM)” value (HIV-1 RT [1]; HIV-1RTMDRI/MT-2, M41L, L74V, V106A, T215Y) was 94.6 (±5.4) % and the “% inhibition (SEM)” value (HIV-1 RT [1]; HIV-1RTMF/MT-2, T215Y) was 96 (±4) %. The “% inhibition (SEM)” value (HIV-1 RT [1]; HIV-1SUM8, Q151M) was 26.6 (±6.1) %, the “inhibition of RT activity” value (HIV-1 RT [1]; HIV-1SUM8) was 50% and the “% inhibition (SEM)” value (HIV-1 RT [1]; HIV-1SUM9, WT) was 95.8 (±1.4) %. The “% inhibition (SEM)” value (HIV-1 RT [1]; HIV-1SUM12, F77L, F116V, Q151M) was 13.1 (±5.5) %, the “inhibition of RT activity” value (HIV-1 RT [1]; HIV-1SUM12 and HIV-1SUM13) was < 15% and the “% inhibition (SEM)” value (HIV-1 RT [1]; HIV-1SUM13, A62V, V75I, F77L, F116Y, Q151M) was 12.9 (±2.8) %. The “% inhibition (SEM)” value (HIV-1 RT [1]; HIV-1xxBRUpitt, WT) was 93.5 (±6.5) %, the “inhibition of RT activity” value (HIV-1 RT [1]; WT HIV-1SUM9) was > 85% and the inhibition of activity (HIV-1 RT [1]; WT RT (HIV-1SUM9) alone) was 91%. The inhibition of activity (HIV-1 RT [1]; mixture containing 10% MNR HIV-1SUM13 in WT HIV-1SUM9) was 17%, the inhibition of activity (HIV-1 RT [1]; mixture containing 30% or more of MNR HIV-1) was “No inhibition” and the “reduction of the level of DNA products” value (HIV-1 RT [1]; 1 μM AZT-triphosphate, MNR strains) was ≤ 30%. The “reduction of the amount of DNA products” value (HIV-1 RT [1]; 1 μM AZT-triphosphate, wild-type and classical reverse transcriptase mutant strains) was ≥ 90%, the IC50 (HIV-1 RT [1]; MNR HIV-1SUM8 (Q151M)) was 2.5 µM and the IC90 (HIV-1 RT [1]; MNR HIV-1SUM8 (Q151M)) was 4.5 µM. The “fold resistance (IC90) as compared to the mean IC values of WT HIV-1” value (shortened to “fold resistance (IC90)”) (HIV-1 RT [1]; MNR HIV-1SUM8 (Q151M)) was “(4.7) fold”, the IC50 (HIV-1 RT [1]; [3]) was 11 µM and the IC90 (HIV-1 RT [1]; [3]) was 18 µM. For the same compound, the “fold resistance (IC90)” value (HIV-1 RT [1]; [3]) was “(18.6) fold”, the IC50 (HIV-1 RT [1]; [4]) was 18 µM and the IC90 (HIV-1 RT [1]; [4]) was 45 µM. For the same compound, the “fold resistance (IC90)” value (HIV-1 RT [1]; [4]) was “(46.6) fold”, the IC50 (HIV-1 RT [1]; WT HIV-1LAI) was 0.5 µM and the IC90 (HIV-1 RT [1]; WT HIV-1LAI) was 0.9 µM. For the same compound, the IC50 (HIV-1 RT [1]; WT HIV-1SUM9) was 0.5 µM, the IC90 (HIV-1 RT [1]; WT HIV-1SUM9) was 1 µM and the IC50 (HIV-1 RT [1]; [5]) was 0.5 µM. The IC90 (HIV-1 RT [1]; [5]) was 1 µM, the IC50 (HIV-1 RT [1]; [6]) was 0.5 µM and the IC90 (HIV-1 RT [1]; [6]) was 1 µM. The “inhibition of RT activity” value (HIV-1 RT [2]; 9 specimens containing classical AZT-resistant mutations) was 87%, the RT activity inhibition (HIV-1 RT [2]; 23 specimens with MNR genotypes) was 0-62% and the RT activity inhibition (HIV-1 RT [2]; HIV-1 RTs that had more MNR-related mutations) was 0-16%. The “inhibition of RT activity” value (HIV-1 RT [2]; all 12 specimens with WT genotype) was 93%, the Phenotype (HIV-1 RT [2]; specimen 12) was “S” and the “% inhibition” value (HIV-1 RT [2]; specimen 12, WT) was 100%. For the same compound, the Phenotype (HIV-1 RT [2]; specimen 13) was “R”, the “% inhibition” value (HIV-1 RT [2]; specimen 13, S68G, Q151M) was 40% and the Phenotype (HIV-1 RT [2]; specimen 14) was “R”. For the same compound, the “% inhibition” value (HIV-1 RT [2]; specimen 14, A62A/V, S68G, V75I, F77L, F116Y, Q151M) was 6%, the Phenotype (HIV-1 RT [2]; specimen 15) was “R” and the “% inhibition” value (HIV-1 RT [2]; specimen 15, S68G, V75I, F77L, K103N, F116Y, Q151M, M184V) was 0%. The Phenotype (HIV-1 RT [2]; specimen 16) was “R”, the “% inhibition” value (HIV-1 RT [2]; specimen 16, Q151Q/M) was 38% and the “% inhibition” value (HIV-1 RT [2]; specimen 17, Q151M) was 23%. The “% inhibition” value (HIV-1 RT [2]; specimen 18, Q151M) was 57%, the Phenotype (HIV-1 RT [2]; specimen 26) was “R” and the “% inhibition” value (HIV-1 RT [2]; specimen 26, A62V, V75T, Q151M, M184I/M) was 11%. The “% inhibition” value (HIV-1 RT [2]; specimen 27, V75I, F77L, F116Y, Q151M) was 0%, the “% inhibition” value (HIV-1 RT [2]; specimen 28, V75I, F77L, F116Y, Q151M) was 8% and the Phenotype (HIV-1 RT [2]; specimen 29) was “R”. The “% inhibition” value (HIV-1 RT [2]; specimen 29, A62V, V75I, F77L, F116Y, Q151M, M184V) was 0%, the Phenotype (HIV-1 RT [2]; specimen 30) was “R” and the “% inhibition” value (HIV-1 RT [2]; specimen 30, K65R, K70R, V75I, F77L, F116Y, Q151M) was 13%. The Phenotype (HIV-1 RT [2]; specimen 31) was “R”, the “% inhibition” value (HIV-1 RT [2]; specimen 31, D67N, Q151M, M184V) was 17% and the Phenotype (HIV-1 RT [2]; specimen 32) was “R”. The “% inhibition” value (HIV-1 RT [2]; specimen 32, V75I, F77L, F116Y, Q151M, M184V) was 26%, the Phenotype (HIV-1 RT [2]; specimen 35) was “R” and the “% inhibition” value (HIV-1 RT [2]; specimen 35, F116Y, Q151M, T215Y, V35I, I135T) was 62%. The Phenotype (HIV-1 RT [2]; specimen 36) was “S”, the “% inhibition” value (HIV-1 RT [2]; specimen 36, D67N, L210W, L214F, T215Y) was 95.6% and the Phenotype (HIV-1 RT [2]; specimen 37) was “S”. The “% inhibition” value (HIV-1 RT [2]; specimen 37, A62V, K70R, L74V, K103N, T215F) was 92.6%, the Phenotype (HIV-1 RT [2]; specimen 38) was “S” and the Phenotype (HIV-1 RT [2]; specimen 39) was “S”. The “% inhibition” value (HIV-1 RT [2]; specimen 39, M41L, M184V, L214F, T215Y) was 89.1%, the Phenotype (HIV-1 RT [2]; specimen 44) was “S” and the Phenotype (HIV-1 RT [2]; specimens 1-11, WT) was “S”. The “% inhibition” value (HIV-1 RT [2]; specimens 1-11, recent seroconverters, WT) was 93-100%, the Phenotype (HIV-1 RT [2]; specimens 17, 18) was “R” and the Phenotype (HIV-1 RT [2]; specimens 19-21) was “R”. The “% inhibition” value (HIV-1 RT [2]; specimens 19-21, A62V, V75I, F77L, F116Y, Q151M) was 4-16%, the Phenotype (HIV-1 RT [2]; specimens 22-25) was “R” and the “% inhibition” value (HIV-1 RT [2]; specimens 22-25, A62V, S68G, V75I, F77L, F116Y, Q151M) was 0%. For the same compound, the Phenotype (HIV-1 RT [2]; specimens 27-28) was “R”, the Phenotype (HIV-1 RT [2]; specimens 33, 34) was “R” and the Phenotype (HIV-1 RT [2]; specimens 40-43) was “S”. The “% inhibition” value (HIV-1 RT [2]; specimens 40-43, T215Y, T69S-insertions EA/SS/SG) was 87-97%, the “IC50 compared to reference WT HIV-1 isolates” value (HIV-1 RT [2]; plasma specimen no. 25 (A62V, S68G, V75I, F77L, F116Y, Q151M)) was 44 fold and the IC50 (HIV-1 RT [2]; [7]) was 0.4 µM. It also gave an IC90 (HIV-1 RT [2]; [7]) of 1 µM.
